# Laboratory results as given in US20220257491A1, “Prebiotic Oral Care Compositions and Methods” (Colgate-Palmolive Company, priority 2021, published 2022).
# System: S. sanguinis
# Test: Multi-species biofilm composition: absolute abundance of S. sanguinis
# Type: cell-based
# Conditions: mean±SD n=3
# Method: Biofilms are grown vertically on Calcium Deficient Hydroxyapatite (CAD-HA) disks (Hitemco Medical, Old Bethpage, USA) using the Amsterdam Active Adhesion model. Biofilms are allowed to establish during 24 h (37° C., 170 rpm) under micro-aerophilic conditions (6% O2, 7% CO2, 7% H2, 80% N2). After this 24 h, disks are rinsed 3 times a day for 3 minutes (RT, 250 rpm), for 3 consecutive days, by transferring the lid containing the disks to a new 24-well plate containing 2 mL/well of the appropriate substrate solution. As a negative control, PBS (pH 5.7) without substrate supplementation is used. After each rinsing step, disks are shortly dip-rinsed in a new 24-well plate containing fresh modified BHI medium (2 mL/well) to remove remaining substrate traces. Subsequently, the lid is transferred to another 24-well plate containing fresh modified BHI medium (2 mL/well), followed by incubation (micro-aerophilic, 37° C., 170 rpm) until the next rinsing step.
# NADM, N-acetyl-D-glucosamine (“NADG”) and D-(+)-mannose are selected to determine their effects on multi-species biofilm composition. […] decrease in absolute numbers in at least four of the pathogenic bacterial species tested in the assay, compared to the control, the results of which are described in Table 1 below. Absolute abundances of bacterial species are shown as mean±SD (n=3) logarithmic values of the genome equivalents per millilitre (log(Geq/mL)).
smiles,measurement,setting,value
"O=C[C@@H](O)[C@@H](O)[C@H](O)[C@H](O)CO [D-mannose, D-(+)-mannose]",Absolute abundance S. sang. (S. sanguinis),substrate 1%(w/v) in PBS,8.19 ± 0.11 log(Geq/mL)
same,Absolute abundance S. sang. (S. sanguinis),substrate 1 M in PBS,7.39 ± 0.89 log(Geq/mL)
"CC(=O)N[C@H]1C(O)O[C@H](CO)[C@@H](O)[C@@H]1O (stereo partly drawn) [NADG, N-acetyl-D-glucosamine, reference compound]",Absolute abundance S. sang. (S. sanguinis),substrate 1%(w/v) in PBS,8.4 ± 0.11 log(Geq/mL)
same,Absolute abundance S. sang. (S. sanguinis),substrate 1 M in PBS,8.11 ± 0.68 log(Geq/mL)
"CC(=O)N[C@@H]1C(O)O[C@H](CO)[C@@H](O)[C@@H]1O (stereo partly drawn) [NADM, N-acetyl-D-mannosamine]",Absolute abundance S. sang. (S. sanguinis),substrate 1%(w/v) in PBS,8.62 ± 0.39 log(Geq/mL)
same,Absolute abundance S. sang. (S. sanguinis),substrate 1 M in PBS,9.10 ± 0.29 log(Geq/mL)
